The source of these data is patent US20260365682A1, “MODULATORS OF TNF-ALPHA ACTIVITY” (Forward Therapeutics, Inc., priority 2022, published 2026).

Molecules are shown by their SMILES. Read-outs that look alike come from different tables or passages of the source.

This test has as its target T1, TNF-α (Homo sapiens, UniProt P01375).
T1 construct: purchased R&D 210-TA-020/CF
The experiment in a line: TNF-α Induced HEK Blue Cellular Assay (secreted alkaline phosphatase expression, QUANTI-Blue). In kind it is cell-based. To be noted: HEK Blue TNFα reporter cells, TNF-α 100 μg/ml, 24 hrs at 37° C., inhibition of secreted alkaline phosphatase. The gist of the method: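 Compound was serially diluted from […] to 0.5 nM final, then incubated with 10,000 HEK Blue TNFα reporter cells per well and […] TNF-α for 24 h at 37° C. SEAP output was read by QUANTI-Blue absorbance at 620 nm. Inhibition was background-corrected against DMSO controls with and without stimulation, and IC50 was fitted with a 4-parameter logistic equation.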

T1 sequence (P01375 77-233 limits assumed): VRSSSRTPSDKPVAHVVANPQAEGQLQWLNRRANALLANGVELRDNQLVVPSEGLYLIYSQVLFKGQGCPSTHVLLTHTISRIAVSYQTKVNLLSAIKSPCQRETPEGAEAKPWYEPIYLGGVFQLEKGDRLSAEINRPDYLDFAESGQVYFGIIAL

As usually defined, the IC50 is the concentration needed to halve the response being measured. The molecule `[2H]C([2H])([2H])N1C(=O)c2cccc(OC(F)F)c2[C@H]2C[C@@H]1c1nc3ccc(C#CCOC4CCC4)cc3n12` [Example 176, (7R,14R)-11-(3-cyclobutoxyprop-1-yn-1-yl)-1-(difluoromethoxy)-6-(methyl-d3)-6,7-dihydro-7,14-methanobenzo[f]benzo[4,5]imidazo[1,2-a][1,4]diazocin-5(14H)-one] gave an IC50 (IC50 value) of 0.1 to 1 µM. `[2H]C([2H])([2H])N1C(=O)c2cccc(OC(F)F)c2[C@H]2C[C@@H]1c1nc3ccc(C#CC4CC(C)(O)C4)cc3n12` (stereo partly drawn) [Example 177, (7R,14R)-1-(difluoromethoxy)-11-((3-hydroxy-3-methylcyclobutyl)ethynyl)-6-(methyl-d3)-6,7-dihydro-7,14-methanobenzo[f]benzo[4,5]imidazo[1,2-a][1,4]diazocin-5(14H)-one]: the IC50 (read-out: IC50 value) is below 0.1 µM.

For the molecule `[2H]C([2H])([2H])N1C(=O)c2cccc(OC(F)F)c2[C@H]2C[C@@H]1c1nc3ccc(C#CC4(C)CN(CC(F)(F)F)C4)cc3n12` [Example 178, (7R,14R)-1-(difluoromethoxy)-6-(methyl-d3)-11-((3-methyl-1-(2,2,2-trifluoroethyl)azetidin-3-yl)ethynyl)-6,7-dihydro-7,14-methanobenzo[f]benzo[4,5]imidazo[1,2-a][1,4]diazocin-5(14H)-one], the IC50 (read-out: IC50 value) was in the range of 0.1 to 1 µM. Regarding `[2H]C([2H])([2H])N1C(=O)c2cccc(OC(F)F)c2[C@H]2C[C@@H]1c1nc3ccc(C#C[C@@H](C)O)cc3n12` [Example 179, (7R,14R)-1-(difluoromethoxy)-11-((R)-3-hydroxybut-1-yn-1-yl)-6-(methyl-d3)-6,7-dihydro-7,14-methanobenzo[f]benzo[4,5]imidazo[1,2-a][1,4]diazocin-5(14H)-one], where the note is “read-out: IC50 value”, the IC50 lay within 10 to 30 µM. With `[2H]C([2H])([2H])N1C(=O)c2cccc(OC(F)F)c2[C@H]2C[C@@H]1c1nc3ccc(C#CC4(C)CCN(C(C)=O)CC4)cc3n12` [Example 180, (7R,14R)-11-((1-acetyl-4-methylpiperidin-4-yl)ethynyl)-1-(difluoromethoxy)-6-(methyl-d3)-6,7-dihydro-7,14-methanobenzo[f]benzo[4,5]imidazo[1,2-a][1,4]diazocin-5(14H)-one], the IC50 (read-out: IC50 value) fell in the range of 10 to 30 µM.

Regarding `[2H]C([2H])([2H])N1C(=O)c2cccc(OC(F)F)c2[C@H]2C[C@@H]1c1nc3ccc(C#CC4(C)CCN(C(=O)C5CC5)CC4)cc3n12` [Example 181, (7R,14R)-11-((1-(cyclopropanecarbonyl)-4-methylpiperidin-4-yl)ethynyl)-1-(difluoromethoxy)-6-(methyl-d3)-6,7-dihydro-7,14-methanobenzo[f]benzo[4,5]imidazo[1,2-a][1,4]diazocin-5(14H)-one], the IC50 (read-out: IC50 value) is 10 to 30 µM. With `[2H]C([2H])([2H])N1C(=O)c2cccc(OC(F)F)c2[C@H]2C[C@@H]1c1nc3ccc(C#CC4(C)CCN(C(=O)C5(C)CC5)C4)cc3n12` (stereo partly drawn) [Example 182, (7R,14R)-1-(difluoromethoxy)-6-(methyl-d3)-11-((3-methyl-1-(1-methylcyclopropane-1-carbonyl)pyrrolidin-3-yl)ethynyl)-6,7-dihydro-7,14-methanobenzo[f]benzo[4,5]imidazo[1,2-a][1,4]diazocin-5(14H)-one], the IC50 (read-out: IC50 value) lay within 0.1 to 1 µM. As to `[2H]C([2H])([2H])N1C(=O)c2cccc(OC(F)F)c2[C@H]2C[C@@H]1c1nc3ccc(C#CC4CCCN(C(C)=O)C4)cc3n12` (stereo partly drawn) [Example 183, (7R,14R)-11-((1-acetylpiperidin-3-yl)ethynyl)-1-(difluoromethoxy)-6-(methyl-d3)-6,7-dihydro-7,14-methanobenzo[f]benzo[4,5]imidazo[1,2-a][1,4]diazocin-5(14H)-one], the IC50 (read-out: IC50 value) was below 0.1 µM. As to `[2H]C([2H])([2H])N1C(=O)c2cccc(OC(F)F)c2[C@H]2C[C@@H]1c1nc3ccc(C#CC4CCCN(C(=O)C5CC5)C4)cc3n12` (stereo partly drawn) [Example 184, (7R,14R)-11-((1-(cyclopropanecarbonyl)piperidin-3-yl)ethynyl)-1-(difluoromethoxy)-6-(methyl-d3)-6,7-dihydro-7,14-methanobenzo[f]benzo[4,5]imidazo[1,2-a][1,4]diazocin-5(14H)-one], the IC50 (read-out: IC50 value) was below 0.1 µM. Consider `[2H]C([2H])([2H])N1C(=O)c2cccc(OC(F)F)c2[C@H]2C[C@@H]1c1nc3ccc(C#CC4CCN(S(C)(=O)=O)CC4)cc3n12` [Example 185, (7R,14R)-1-(difluoromethoxy)-6-(methyl-d3)-11-((1-(methylsulfonyl)piperidin-4-yl)ethynyl)-6,7-dihydro-7,14-methanobenzo[f]benzo[4,5]imidazo[1,2-a][1,4]diazocin-5(14H)-one], for which the IC50 (read-out: IC50 value) was below 0.1 µM.

For `[2H]C([2H])([2H])N1C(=O)c2cccc(OC(F)F)c2[C@H]2C[C@@H]1c1nc3ccc(C#CC4CCN(C(=O)C(C)(C)O)CC4)cc3n12` [Example 186, (7R,14R)-1-(difluoromethoxy)-11-((1-(2-hydroxy-2-methylpropanoyl)piperidin-4-yl)ethynyl)-6-(methyl-d3)-6,7-dihydro-7,14-methanobenzo[f]benzo[4,5]imidazo[1,2-a][1,4]diazocin-5(14H)-one], the IC50 (read-out: IC50 value) was below 0.1 µM. As for `[2H]C([2H])([2H])N1C(=O)c2cccc(OC(F)F)c2[C@H]2C[C@@H]1c1nc3ccc(C#CC4CCN(C(=O)C5(O)CC5)CC4)cc3n12` [Example 187, (7R,14R)-1-(difluoromethoxy)-11-((1-(1-hydroxycyclopropane-1-carbonyl)piperidin-4-yl)ethynyl)-6-(methyl-d3)-6,7-dihydro-7,14-methanobenzo[f]benzo[4,5]imidazo[1,2-a][1,4]diazocin-5(14H)-one], for the setting “read-out: IC50 value”, the IC50 was below 0.1 µM. For `[2H]C([2H])([2H])N1C(=O)c2cccc(OC(F)F)c2[C@H]2C[C@@H]1c1nc3ccc(C#CC4(C(F)F)CC4)cc3n12` [Example 188, (7R,14R)-1-(difluoromethoxy)-11-((1-(difluoromethyl)cyclopropyl)ethynyl)-6-(methyl-d3)-6,7-dihydro-7,14-methanobenzo[f]benzo[4,5]imidazo[1,2-a][1,4]diazocin-5(14H)-one], the IC50 (read-out: IC50 value) fell in the range of 0.1 to 1 µM.

For the molecule `[2H]C([2H])([2H])N1C(=O)c2cccc(OC(F)F)c2[C@H]2C[C@@H]1c1nc3ccc(C#CC4(C)CCN(C(=O)C5CC5)C4)cc3n12` (stereo partly drawn) [Example 189, (7R,14R)-11-((1-(cyclopropanecarbonyl)-3-methylpyrrolidin-3-yl)ethynyl)-1-(difluoromethoxy)-6-(methyl-d3)-6,7-dihydro-7,14-methanobenzo[f]benzo[4,5]imidazo[1,2-a][1,4]diazocin-5(14H)-one], under “read-out: IC50 value”, the IC50 was in the range of 10 to 30 µM.

On to `[2H]C([2H])([2H])N1C(=O)c2cccc(OC(F)F)c2[C@H]2C[C@@H]1c1nc3ccc(C#CC4(C)CCN(C(=O)C(C)(C)C)C4)cc3n12` (stereo partly drawn) [Example 190, (7R,14R)-1-(difluoromethoxy)-6-(methyl-d3)-11-((3-methyl-1-pivaloylpyrrolidin-3-yl)ethynyl)-6,7-dihydro-7,14-methanobenzo[f]benzo[4,5]imidazo[1,2-a][1,4]diazocin-5(14H)-one], for which, where the note is “read-out: IC50 value”, the IC50 was 0.1 to 1 µM. As for `[2H]C([2H])([2H])N1C(=O)c2cccc(OC(F)F)c2[C@H]2C[C@@H]1c1nc3ccc(C#CC(C)(C)CO)cc3n12` [Example 191, (7R,14R)-1-(difluoromethoxy)-11-(4-hydroxy-3,3-dimethylbut-1-yn-1-yl)-6-(methyl-d3)-6,7-dihydro-7,14-methanobenzo[f]benzo[4,5]imidazo[1,2-a][1,4]diazocin-5(14H)-one], the IC50 (read-out: IC50 value) is 10 to 30 µM.
